Results published in ChEMBL document CHEMBL4513134, “CO-ADD screening of University of Queensland (Australia) compounds” (2021).
≈ marks a conversion by molar mass, not a printed value.

Key:
HEK293 = assay: cells; assay type: functional, Homo sapiens, ATCC CRL1573; conditions: ASSAY_TEST Inhibition of Cell Viability; detection method Resazurin; Fluorescence (ex560/em590); MEDIA DMEM with 10% FBS; plate type 384well; TC; CORNING #3712; time 18 hr
Acinetobacter baumannii = assay: Antibacterial activity against Acinetobacter baumannii ATCC 19606 (CO-ADD:GN_034); MIC in CAMBH media using NBS plates, by OD600; conditions: Concentration 32.0 ug.mL-1
Pseudomonas aeruginosa = conditions: ATCC 27853, Concentration 32.0 ug.mL-1
Description: Antibacterial activity against Pseudomonas aeruginosa ATCC 27853 (CO-ADD:GN_042); MIC in CAMBH media using NBS plates, by OD(600)

Staphylococcus aureus [1] = assay: Antibacterial activity against Staphylococcus aureus MRSA ATCC 43300 (CO-ADD:GP_020); MIC in CAMBH media, using NBS plates, by OD(600); conditions: Concentration 32.0 ug.mL-1
Klebsiella pneumoniae = conditions: ATCC 700603, Concentration 32.0 ug.mL-1
Description: Antibacterial activity against Klebsiella pneumoniae MDR ATCC 70063 (CO-ADD:GN_003); MIC in CAMBH media using NBS plates, by OD(600)

Escherichia coli = assay: Antibacterial activity against Escherichia coli ATCC 25922 (CO-ADD:GN_001); MIC in CAMBH media using NBS plates, by OD(600); conditions: Concentration 32.0 ug.mL-1
Staphylococcus aureus [2] = assay: microbe, parasite or virus in culture; conditions: ATCC 43300, 18 h, ASSAY_TEST Inhibition of Bacterial Growth, detection method Absorption (OD600), MEDIA CAMHB, plate type 384well, NBS, CORNING #3640

| SMILES | CC50 (HEK293) | inhibition (Acinetobacter baumannii) | inhibition (Pseudomonas aeruginosa) | inhibition (Staphylococcus aureus [1]) | inhibition (Klebsiella pneumoniae) | inhibition (Escherichia coli) | MIC (Staphylococcus aureus [2]) |
| --- | --- | --- | --- | --- | --- | --- | --- |
| NNC(=O)c1nc([N+](=O)[O-])cn1Cc1ccc(OC(F)(F)F)cc1 | >100 | – | – | – | – | – | – |
| O=C(c1ncc([N+](=O)[O-])[nH]1)N1CCCC1 | – | Average; N=2 | Average; N=2 | Average; N=2 | Average; N=2 | Average; N=2 | – |
| NC(=O)c1nc([N+](=O)[O-])cn1Cc1ccc(F)cc1 | – | Average; N=2 | Average; N=2 | Average; N=2 | Average; N=2 | Average; N=2 | – |
| Cc1c(C)n2cc([N+](=O)[O-])nc2c(=O)n1Cc1ccc(OC(F)(F)F)cc1 | >100 | – | – | – | – | – | – |
| O=C(NCc1ccccn1)c1ncc([N+](=O)[O-])[nH]1 | – | Average; N=2 | Average; N=2 | Average; N=2 | Average; N=2 | Average; N=2 | – |
| CN(C)C(=O)c1nc([N+](=O)[O-])cn1Cc1ccc(OC(F)(F)F)cc1 | >100 | – | – | – | – | – | – |
| CNC(=O)c1ncc([N+](=O)[O-])[nH]1 | – | Average; N=2 | Average; N=2 | Average; N=2 | Average; N=2 | Average; N=2 | – |
| COc1nc(C)cn2cc([N+](=O)[O-])nc12 | >50 | – | – | – | – | – | – |
| [N-]=[N+]=NCCOc1nc(-c2ccccc2)cn2cc([N+](=O)[O-])nc12 | – | Average; N=2 | Average; N=2 | Average; N=2 | Average; N=2 | Average; N=2 | – |
| CC(=O)OCCn1c(-c2ccccc2)cn2cc([N+](=O)[O-])nc2c1=O | – | Average; N=2 | Average; N=2 | Average; N=2 | Average; N=2 | Average; N=2 | – |
| Cc1cn2cc([N+](=O)[O-])nc2c(=O)n1CCO | >100 | – | – | – | – | – | – |
| Cc1nc(OCc2ccc(OC(F)(F)F)cc2)c2nc([N+](=O)[O-])cn2c1C | >100 | – | – | – | – | – | – |
| NC(=O)c1nc([N+](=O)[O-])cn1CCc1ccc(OC(F)(F)F)cc1 | – | Average; N=2 | Average; N=2 | Average; N=2 | Average; N=2 | Average; N=2 | – |
| O=[N+]([O-])c1cn2ccnc(OCCc3ccc(OC(F)(F)F)cc3)c2n1 | >100 | – | – | – | – | – | – |
| O=C(NCc1ccc(OC(F)(F)F)cc1)c1ncc([N+](=O)[O-])[nH]1 | – | Average; N=2 | Average; N=2 | Average; N=2 | Average; N=2 | Average; N=2 | – |
| O=C(NCc1cccc(OC(F)(F)F)c1)c1ncc([N+](=O)[O-])[nH]1 | – | – | – | – | – | – | 16 µg/mL (≈ 48.5 µM) |
| NC(=O)c1ncc([N+](=O)[O-])[nH]1 | – | Average; N=2 | Average; N=2 | Average; N=2 | Average; N=2 | Average; N=2 | – |
| CN(CCO)C(=O)c1ncc([N+](=O)[O-])[nH]1 | – | Average; N=2 | Average; N=2 | Average; N=2 | Average; N=2 | Average; N=2 | – |
| Cc1[nH]c(=O)c2nc([N+](=O)[O-])cn2c1C | >100 | – | – | – | – | – | – |
| Cc1cn2cc([N+](=O)[O-])nc2c(OCCO)n1 | >100 | – | – | – | – | – | – |
| CCOC(=O)c1nc([N+](=O)[O-])c[nH]1 | >100 | – | – | – | – | – | – |
| NC(=O)c1nc([N+](=O)[O-])cn1Cc1cccc(OC(F)(F)F)c1 | – | Average; N=2 | Average; N=2 | Average; N=2 | Average; N=2 | Average; N=2 | – |
| CN(C)C(=O)c1ncc([N+](=O)[O-])[nH]1 | – | Average; N=2 | Average; N=2 | Average; N=2 | Average; N=2 | Average; N=2 | – |
| O=C(NCCO)c1ncc([N+](=O)[O-])[nH]1 | – | Average; N=2 | Average; N=2 | Average; N=2 | Average; N=2 | Average; N=2 | – |
| O=c1[nH]c(-c2ccc(OC(F)(F)F)cc2)cn2cc([N+](=O)[O-])nc12 | >100 | – | – | – | – | – | – |
| O=C(NC1CC1)c1ncc([N+](=O)[O-])[nH]1 | – | Average; N=2 | Average; N=2 | Average; N=2 | Average; N=2 | Average; N=2 | – |

| SMILES | CC50 (HEK293) | inhibition (Acinetobacter baumannii) | inhibition (Pseudomonas aeruginosa) | inhibition (Staphylococcus aureus [1]) | inhibition (Klebsiella pneumoniae) | inhibition (Escherichia coli) | MIC (Staphylococcus aureus [2]) |
| --- | --- | --- | --- | --- | --- | --- | --- |
| CC(=O)OCCn1c(C)cn2cc([N+](=O)[O-])nc2c1=O | >100 | – | – | – | – | – | – |
| NC(=O)c1nc([N+](=O)[O-])cn1Cc1ccc(C(F)(F)F)cc1 | – | Average; N=2 | Average; N=2 | Average; N=2 | Average; N=2 | Average; N=2 | – |
| O=C(O)C(F)(F)F.O=c1nc(N2CCN(CC3CCCCC3)CC2)sc2c([N+](=O)[O-])cc(C(F)(F)F)cc12 | >50 | – | – | – | – | – | – |
| CN(Cc1ccc(OC(F)F)cc1)C(=O)c1ncc([N+](=O)[O-])[nH]1 | – | – | – | – | – | – | 16 µg/mL (≈ 49 µM) |
| Cc1cn2cc([N+](=O)[O-])nc2c(=O)n1Cc1ccc(OC(F)(F)F)cc1 | >100 | – | – | – | – | – | – |
| CC(NC(=O)c1ncc([N+](=O)[O-])[nH]1)c1ccc(F)cc1 (stereo unspecified) | – | Average; N=2 | Average; N=2 | Average; N=2 | Average; N=2 | Average; N=2 | – |
| C[C@H]1COC2(CCN(c3nc(=O)c4cc(C(F)(F)F)cc([N+](=O)[O-])c4s3)CC2)O1 [BTZ-043] | >100 | – | – | – | – | – | – |
| CC(=O)OCCn1cc([N+](=O)[O-])nc1C(N)=O | – | Average; N=2 | Average; N=2 | Average; N=2 | Average; N=2 | Average; N=2 | – |
| CS(=O)(=O)c1ccc(CNC(=O)c2ncc([N+](=O)[O-])[nH]2)cc1 | – | Average; N=2 | Average; N=2 | Average; N=2 | Average; N=2 | Average; N=2 | – |
| Cc1cn2cc([N+](=O)[O-])nc2c(OCc2ccc(OC(F)(F)F)cc2)n1 | >100 | – | – | – | – | – | – |
| NC(=O)c1nc([N+](=O)[O-])cn1CC1CCCCC1 | – | Average; N=2 | Average; N=2 | Average; N=2 | Average; N=2 | Average; N=2 | – |
| CN(CCOC(=O)c1ncc([N+](=O)[O-])[nH]1)C(=O)c1ncc([N+](=O)[O-])[nH]1 | – | Average; N=2 | Average; N=2 | Average; N=2 | Average; N=2 | Average; N=2 | – |
| Cc1ccc(CCn2cc([N+](=O)[O-])nc2C(N)=O)cc1 | – | Average; N=2 | Average; N=2 | Average; N=2 | Average; N=2 | Average; N=2 | – |
| O=C(c1ncc([N+](=O)[O-])[nH]1)N1CCOCC1 | – | Average; N=2 | Average; N=2 | Average; N=2 | Average; N=2 | Average; N=2 | – |
| Nc1c[nH]c(C(=O)NCc2ccc(F)cc2)n1 | – | Average; N=2 | Average; N=2 | Average; N=2 | Average; N=2 | Average; N=2 | – |
| NC(=O)c1nc([N+](=O)[O-])cn1Cc1ccccn1 | – | Average; N=2 | Average; N=2 | Average; N=2 | Average; N=2 | Average; N=2 | – |
| CC(=O)OCCOc1nc(C)cn2cc([N+](=O)[O-])nc12 | >100 | – | – | – | – | – | – |
| O=C(NC1CCCCC1)c1ncc([N+](=O)[O-])[nH]1 | – | Average; N=2 | Average; N=2 | Average; N=2 | Average; N=2 | Average; N=2 | – |
| Cc1ccc(CCNC(=O)c2ncc([N+](=O)[O-])[nH]2)cc1 | – | – | – | – | – | – | 32 µg/mL (≈ 117 µM) |
| CCOC(=O)c1nc([N+](=O)[O-])cn1Cc1ccc(OC(F)(F)F)cc1 | >100 | – | – | – | – | – | – |
| Cc1cn2cc([N+](=O)[O-])nc2c(=O)[nH]1 | >100 | – | – | – | – | – | – |
| O=C(NCc1ccccc1)c1nc([N+](=O)[O-])c[nH]1 | – | Average; N=2 | Average; N=2 | Average; N=2 | Average; N=2 | Average; N=2 | – |
| O=C(NO)c1nc([N+](=O)[O-])cn1Cc1ccc(OC(F)(F)F)cc1 | 36 | – | – | – | – | – | – |
| CNC(=O)c1nc([N+](=O)[O-])cn1Cc1ccc(OC(F)(F)F)cc1 | >100 | – | – | – | – | – | – |
| NC(=O)c1nc([N+](=O)[O-])cn1CCO | >100 | – | – | – | – | – | – |
| Cc1ccc(CNC(=O)c2nc([N+](=O)[O-])c[nH]2)cc1 | – | – | – | – | – | – | 32 µg/mL (≈ 123 µM) |
